Reference: ChEMBL document CHEMBL3507680, “University of Dundee, Gates Library screen for HepG2 cell viability”

Test: Human HepG2 cell viability assay in 384 well format
Format: toxicity, cell-based
Parameters: dose 125 nL, time 70.5 hour; cytotoxicity at 70.5 h: concentration not given beside the values
Conditions: HepG2 cells, read-out: Inhibition

Structure (SMILES) | cytotoxicity at 70.5 h
COc1cc(OC)c(CNC(=O)NCC(=O)N(C)C)c(OC)c1 | 1.38%
NC(=O)C1CCCN1Cc1ccccc1NC(=O)Cc1cccs1 (centres undefined) | 13%
N#Cc1ccc(NC2CCN(c3ncccn3)CC2)cc1C(F)(F)F | 5.96%
CCNC(=O)CCC(=O)Nc1nc(C)c(Cc2ccc(F)cc2)s1 | -1.26%
CSCCC(C)NC(=O)CCN1C(=O)CCc2cc(F)ccc21 (centres undefined) | -4.19%
Cc1ccc(C(=O)NS(C)(=O)=O)cc1I | 16.8%
Cc1cc(NC(N)=O)ccc1C(=O)N(C)C | 4.17%
CC(O)CNc1nc(-c2cccnc2)nc2c1CCC2 (centres undefined) | 0.874%
Cn1ncnc1NS(=O)(=O)c1ccccc1 | 6.82%
CC(C)C(C)NC(=O)CCN1C(=O)CCc2cc(F)ccc21 (centres undefined) | 19.4%
Cc1cc(C)nc(NC2CCOC3(CCCC3)C2)n1 (centres undefined) | 3.01%
CCOC(=O)CN1CCC(NC(=O)OC(C)(C)C)CC1 | 14.9%
CCOC(C)c1noc(CN(C)C(=O)C2C(C)(C)C2(C)C)n1 (centres undefined) | -2.89%
Cc1cc(NCC(C)C)ccc1C(=O)N(C)C | 13.4%
Cc1nsc(NC2CCOC3(CCCC3)C2)n1 (centres undefined) | -1.21%
CCN(c1ccc(C(=O)N(Cc2cnn(C)c2)C(C)C)cn1)C(C)C | -24.7%
CC(C)NC(=O)CCCn1cnc2ccccc2c1=O | 16.8%
CC(C)COC(C)C(=O)NCCNC(=O)C(C)C (centres undefined) | -1.79%
O=C(CCCNC(=O)C1CCCO1)Nc1ccc(Cl)cc1 (centres undefined) | 17.1%
Cc1csc(CNC(=O)NCC2(c3ccc4c(c3)OCO4)CC2)n1 | -2.06%
CN(CCCc1cc(-c2ccc(F)cc2)n(C)n1)CC(N)=O | -11.3%
Cc1cc(CN2CCN(c3ccnc(-c4ccccc4)n3)CC2)no1 | -4.67%
CC(C(N)=O)N(C)CCCc1cc(-c2ccc(F)cc2)n(C)n1 (centres undefined) | -9.74%
O=C(NCCNS(=O)(=O)C1CCCCC1)c1ccccc1 | -10.7%
COCCn1ccc(NCc2cc3cc(F)ccc3o2)n1 | -6.3%
CC(C)c1nncn1CCNC(=O)c1ccc(Cl)cc1O | 0.918%
Cc1cc(C(=O)N2CCCS2(=O)=O)c(C)o1 | -9.77%

Structure (SMILES) | cytotoxicity at 70.5 h
Cc1cc(C(=O)N2CCS(=O)(=O)CC2)c(C)o1 | -2.07%
CCOc1ccc(CN(CCC#N)CCN2CCOCC2)cc1OC | -0.151%
COc1ccc(OC)c(CNc2nnc(C(C)(C)C)o2)c1 | -12.4%
COc1cccc(C2CN(CCc3ccncc3)CCO2)c1 (centres undefined) | -6.16%
CCCS(=O)(=O)NCCc1ncc(CC)s1 | -0.431%
COc1ccc(CN(CCC#N)CCN2CCOCC2)c(OC)c1 | -4.65%
CN1CCC(NCC(O)c2cccc(OCc3ccccc3)c2)CC1 (centres undefined) | 4.18%
Cc1ncc(CNCC2CCC(C(N)=O)CC2)n1-c1ccccc1 (centres undefined) | 11.9%
Cc1ccccc1C(=O)NC1CCN(Cc2ncc(C(C)(C)C)o2)CC1 | -0.562%
O=C(CSCc1ccncc1)N(Cc1ccsc1)C1CC1 | 0.347%
COc1ccc(CNC(=O)c2ccc(Br)cn2)cc1 | 13.3%
COC(=O)CNC(=O)C12CCC(=O)N1c1cc(Cl)ccc1S2 (centres undefined) | -1.84%
CCc1noc(CN(CC(=O)N2CCCCC2)c2ccc(C)cc2)n1 | -1.63%
Nc1cc2c(nn1)CCN(C(=O)c1csc(-c3ccccc3)n1)C2 | -1.92%
CC(C)(C)c1cnc(CN2CCC(NC(=O)CC3CCCC3)CC2)o1 | 14%
Cc1ncc(C(=O)NC2CCN(CCOc3ccc(Br)cc3)CC2)s1 | -4.58%
O=C(CCc1cccc(Cl)c1)NS(=O)(=O)Cc1ccon1 | 1.74%
O=C(CCc1ccco1)NS(=O)(=O)Cc1ccon1 | -3.83%
COCCNC(=O)c1nc(-c2cn(C)cn2)n2ccccc12 | -7.59%
O=C(c1cscn1)N1C[C@H]2CCC[C@@]2(COCc2ccccn2)C1 | -6.34%
CCS(=O)(=O)N1CCCn2nnc(CNC(C)=O)c2C1 | 7.38%
O=C([C@H]1C[C@@H]2CN(c3ncc(F)cn3)C[C@H]1O2)N1CCCC1 | -9.42%
COC[C@@H]1CCC[C@@]12CN(C(=O)N(C)C)CCO2 | 0.626%
CCOCc1cnc2n1CCN(C(=O)c1ccccc1)C2C (centres undefined) | 19.2%
CC(=O)NCc1nnn2c1CN(c1ncc(C)cn1)CCC2 | -20.5%
CCOCc1cnc2n1CCN(C(=O)c1cn(C)c3ccccc13)C2C (centres undefined) | 8.97%
COCC(=O)NCc1cc(=O)n2c(n1)CN(Cc1ccco1)CCC2 | 2.27%
